Converted amounts (≈) assume the structure as drawn.
Legend:
[1] = molecular target: Free fatty acid receptor 4 (Homo sapiens, UniProt Q5NUL3); experiment: Agonist activity at human GPR120 short splice variant expressed in HEK293 cells assessed as increase in intracellular calcium flux incubated for 30 mins measured for 300 secs at 1 sec interval by Fluo-4 NW dye based FLIPR assay; assay type: functional, cell-based
[2] = Metabolic stability in human liver microsomes assessed as parent compound remaining measured at 10 mins; assay type: ADME, microsome; settings: read-out: Stability
[3] = Metabolic stability in mouse liver microsomes assessed as parent compound remaining measured at 10 mins; assay type: ADME, microsome; settings: liver microsomes, read-out: Stability
[4] = Metabolic stability in rat liver microsomes assessed as parent compound remaining measured at 10 mins; assay type: ADME, microsome; settings: liver microsomes, read-out: Stability
[5] = molecular target: T1, Free fatty acid receptor 4 (Mus musculus, UniProt Q7TMA4); experiment: Agonist activity at mouse GPR120 by calcium flux assay; assay type: functional
T1 sequence (Q7TMA4 whole entry): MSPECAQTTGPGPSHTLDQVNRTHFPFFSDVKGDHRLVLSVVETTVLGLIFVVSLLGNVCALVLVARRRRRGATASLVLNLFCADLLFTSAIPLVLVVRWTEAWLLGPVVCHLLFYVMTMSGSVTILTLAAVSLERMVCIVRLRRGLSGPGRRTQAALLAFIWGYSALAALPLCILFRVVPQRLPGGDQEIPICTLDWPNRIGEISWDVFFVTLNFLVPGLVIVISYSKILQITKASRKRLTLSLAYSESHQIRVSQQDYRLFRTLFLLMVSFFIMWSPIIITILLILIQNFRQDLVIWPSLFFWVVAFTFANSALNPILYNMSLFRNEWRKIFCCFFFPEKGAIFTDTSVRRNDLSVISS

[6] = molecular target: Free fatty acid receptor 1 (Homo sapiens, UniProt O14842); experiment: Agonist activity at human GPR40 by calcium flux assay; assay type: functional
Chain of Free fatty acid receptor 1 (O14842 whole entry): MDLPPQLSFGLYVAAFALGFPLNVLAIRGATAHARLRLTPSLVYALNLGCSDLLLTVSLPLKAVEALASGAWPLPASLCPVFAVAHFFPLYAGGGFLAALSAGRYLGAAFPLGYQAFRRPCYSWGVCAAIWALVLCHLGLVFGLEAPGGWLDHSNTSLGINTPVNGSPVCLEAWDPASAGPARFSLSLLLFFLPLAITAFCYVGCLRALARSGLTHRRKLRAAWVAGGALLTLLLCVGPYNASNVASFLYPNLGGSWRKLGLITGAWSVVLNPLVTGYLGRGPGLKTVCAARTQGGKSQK

[7] = test system: Mus musculus; experiment: Antidiabetic activity in diet-induced obese C57BL/6 mouse assessed as reduction in plasma glucose delta AUC level at 1 mg/kg, po administered 30 mins prior to glucose challenge measured 90 mins post glucose challenge by OGTT relative to control; assay type: functional; design: scale not given: the % may be the effect or the level left
[8] = test system: Mus musculus; experiment: Antidiabetic activity in diet-induced obese C57BL/6 mouse assessed as reduction in plasma glucose delta AUC level at 3 mg/kg, po administered 30 mins prior to glucose challenge measured 90 mins post glucose challenge by OGTT relative to control; assay type: functional; design: scale not given: the % may be the effect or the level left
[9] = test system: Mus musculus; experiment: Antidiabetic activity in diet-induced obese C57BL/6 mouse assessed as reduction in plasma glucose delta AUC level administered orally 30 mins prior to glucose challenge measured 90 mins post glucose challenge by OGTT; assay type: functional, organism-based
[10] = test system: Mus musculus; experiment: Antidiabetic activity in diet-induced obese C57BL/6 mouse harboring wild type GPR120 assessed as reduction in plasma glucose delta AUC level at 60 mg/kg, po qd administered 30 mins prior to glucose challenge measured 90 mins post glucose challenge for 3 weeks; assay type: functional; design: scale not given: the % may be the effect or the level left
[11] = test system: Mus musculus; experiment: Antidiabetic activity in diet-induced obese C57BL/6 mouse assessed as reduction in plasma glucose delta AUC level at 0.3 mg/kg, po administered 30 mins prior to glucose challenge measured 90 mins post glucose challenge by OGTT relative to control; assay type: functional; design: scale not given: the % may be the effect or the level left
[12] = test system: Mus musculus; experiment: Antidiabetic activity in diet-induced obese C57BL/6 mouse assessed as reduction in plasma glucose delta AUC level at 0.1 mg/kg, po administered 30 mins prior to glucose challenge measured 90 mins post glucose challenge by OGTT relative to control; assay type: functional; design: scale not given: the % may be the effect or the level left
[13] = test system: Mus musculus; experiment: Antidiabetic activity in GPR120 knockout diet-induced obese C57BL/6 mouse assessed as reduction in plasma glucose delta AUC level at 60 mg/kg, po qd administered 30 mins prior to glucose challenge measured 90 mins post glucose challenge for 3 weeks; assay type: functional; design: scale not given: the % may be the effect or the level left
[14] = Inhibition of CYP450 (unknown origin) measured up to 10 uM; assay type: ADME; settings: human
[15] = molecular target: T2, PXR (nuclear receptor subfamily 1 group I member 2) (Homo sapiens, UniProt O75469); experiment: Activation of PXR (unknown origin) at 5 uM relative to control; settings: read-out: Activity
T2 sequence (O75469 whole entry): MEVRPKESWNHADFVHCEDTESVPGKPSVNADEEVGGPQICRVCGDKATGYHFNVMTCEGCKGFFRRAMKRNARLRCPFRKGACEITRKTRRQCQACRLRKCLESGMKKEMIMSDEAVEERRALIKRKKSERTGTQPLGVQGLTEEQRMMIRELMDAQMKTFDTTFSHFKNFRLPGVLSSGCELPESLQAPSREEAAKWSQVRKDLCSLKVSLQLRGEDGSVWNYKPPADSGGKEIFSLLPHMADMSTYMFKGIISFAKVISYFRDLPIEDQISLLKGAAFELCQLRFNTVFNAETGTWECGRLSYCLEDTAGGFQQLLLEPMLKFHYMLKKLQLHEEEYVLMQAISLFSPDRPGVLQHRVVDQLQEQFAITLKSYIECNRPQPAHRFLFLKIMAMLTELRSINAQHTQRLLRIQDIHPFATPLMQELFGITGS

[16] = molecular target: Voltage-gated inwardly rectifying potassium channel KCNH2 (Homo sapiens, UniProt Q12809); experiment: Inhibition of human ERG
Chain of Voltage-gated inwardly rectifying potassium channel KCNH2 (Q12809 whole entry): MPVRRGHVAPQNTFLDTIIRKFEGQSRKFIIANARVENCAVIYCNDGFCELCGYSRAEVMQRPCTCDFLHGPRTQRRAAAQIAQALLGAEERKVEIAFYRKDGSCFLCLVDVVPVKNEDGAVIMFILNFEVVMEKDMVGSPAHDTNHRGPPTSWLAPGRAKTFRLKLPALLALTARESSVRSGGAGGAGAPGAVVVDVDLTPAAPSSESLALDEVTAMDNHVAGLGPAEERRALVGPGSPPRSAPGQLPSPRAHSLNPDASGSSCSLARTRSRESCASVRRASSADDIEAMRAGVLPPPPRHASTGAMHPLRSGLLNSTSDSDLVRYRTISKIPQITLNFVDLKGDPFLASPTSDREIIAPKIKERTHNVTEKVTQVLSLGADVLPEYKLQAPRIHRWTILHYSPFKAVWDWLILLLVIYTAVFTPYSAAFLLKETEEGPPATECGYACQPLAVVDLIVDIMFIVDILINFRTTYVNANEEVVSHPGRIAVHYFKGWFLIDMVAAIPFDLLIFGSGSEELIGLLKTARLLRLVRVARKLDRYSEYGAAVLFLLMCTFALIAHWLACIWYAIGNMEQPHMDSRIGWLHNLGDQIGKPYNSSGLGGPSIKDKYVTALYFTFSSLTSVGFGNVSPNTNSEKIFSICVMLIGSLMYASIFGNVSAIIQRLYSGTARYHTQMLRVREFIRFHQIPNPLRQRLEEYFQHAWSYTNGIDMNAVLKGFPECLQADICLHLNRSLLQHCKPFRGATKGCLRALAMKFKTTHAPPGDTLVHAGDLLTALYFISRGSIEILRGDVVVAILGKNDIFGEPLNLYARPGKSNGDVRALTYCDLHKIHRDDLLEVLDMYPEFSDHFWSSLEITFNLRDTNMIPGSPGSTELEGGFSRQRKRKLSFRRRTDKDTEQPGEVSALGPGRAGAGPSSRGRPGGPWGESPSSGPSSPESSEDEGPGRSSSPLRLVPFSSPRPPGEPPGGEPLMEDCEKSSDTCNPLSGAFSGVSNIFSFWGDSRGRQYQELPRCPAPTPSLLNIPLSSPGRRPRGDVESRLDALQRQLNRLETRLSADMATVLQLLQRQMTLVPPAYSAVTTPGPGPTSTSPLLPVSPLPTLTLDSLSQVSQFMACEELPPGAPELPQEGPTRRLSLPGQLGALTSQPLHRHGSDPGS

[17] = molecular target: T3, hERG (KCNH2) (Homo sapiens, UniProt Q12809); experiment: Inhibition of human ERG at 3 uM by patch express assay relative to control
T3 sequence (Q12809 whole entry): as above

[18] = molecular target: T3, hERG (KCNH2); experiment: Inhibition of human ERG at 10 uM by patch express assay relative to control
[19] = molecular target: T3, hERG (KCNH2); experiment: Inhibition of human ERG at 30 uM by patch express assay relative to control
[20] = Protein binding in human plasma; assay type: ADME, cell-free; settings: read-out: PPB (converted)
[21] = Protein binding in rat plasma; assay type: ADME, cell-free; settings: read-out: PPB (converted)
[22] = Protein binding in mouse plasma; assay type: ADME, cell-free; settings: read-out: PPB (converted)
[23] = Kinetic solubility of the compound in PBS; assay type: physicochemical; settings: read-out: Kinetic_solubility
[24] = Apparent permeability from apical to basolateral side in MDCK cells; assay type: ADME, cell-based, Canis lupus familiaris; settings: dog
[25] = Efflux ratio of apparent permeability from basolateral to apical side over apical to basolateral side in MDCK cells; assay type: ADME, cell-based, Canis lupus familiaris; settings: dog
[26] = Oral bioavailability in SPF Sprague-Dawley rat at 10 mg/kg by LC-MS/MS analysis; assay type: ADME, organism-based; settings: in vivo
[27] = Half life in SPF Sprague-Dawley rat at 10 mg/kg, po by LC-MS/MS analysis; assay type: ADME, organism-based; settings: in vivo
[28] = Cmax in SPF Sprague-Dawley rat at 10 mg/kg, po by LC-MS/MS analysis; assay type: ADME, organism-based; design: dose 10 mg/kg, route oral; settings: in vivo
[29] = AUClast in SPF Sprague-Dawley rat at 10 mg/kg, po by LC-MS/MS analysis; assay type: ADME, organism-based; design: dose 10 mg/kg, time 0 - last, route oral; settings: in vivo
[30] = Cmax in DIO C57bl/6J mouse at 20 mg/kg, po administered via gavage by LC-MS/MS analysis; assay type: ADME, organism-based; design: dose 20 mg/kg, route oral; settings: in vivo
[31] = AUClast in DIO C57bl/6J mouse at 20 mg/kg, po administered via gavage by LC-MS/MS analysis; assay type: ADME, organism-based; design: dose 20 mg/kg, route oral, time 0 - last; settings: in vivo
[32] = Half life in DIO C57bl/6J mouse at 20 mg/kg, po administered via gavage by LC-MS/MS analysis; assay type: ADME, organism-based; settings: in vivo
[33] = Ratio of drug uptake in DIO C57bl/6J mouse adipose tissue to plasma at 20 mg/kg, po administered via gavage; assay type: ADME, organism-based; settings: adipose tissue and plasma
[34] = molecular target: T4, Free fatty acid receptor 4 (Homo sapiens, UniProt Q5NUL3); experiment: Agonist activity at PK-tagged human GPR120 long isoform expressed in CHOK1 cells co-expressing EA-tagged beta-arrestin assessed as beta-gal enzyme complex formation after 90 mins by enzyme fragment complementation assay; assay type: cell-based
T4 sequence (Q5NUL3 whole entry): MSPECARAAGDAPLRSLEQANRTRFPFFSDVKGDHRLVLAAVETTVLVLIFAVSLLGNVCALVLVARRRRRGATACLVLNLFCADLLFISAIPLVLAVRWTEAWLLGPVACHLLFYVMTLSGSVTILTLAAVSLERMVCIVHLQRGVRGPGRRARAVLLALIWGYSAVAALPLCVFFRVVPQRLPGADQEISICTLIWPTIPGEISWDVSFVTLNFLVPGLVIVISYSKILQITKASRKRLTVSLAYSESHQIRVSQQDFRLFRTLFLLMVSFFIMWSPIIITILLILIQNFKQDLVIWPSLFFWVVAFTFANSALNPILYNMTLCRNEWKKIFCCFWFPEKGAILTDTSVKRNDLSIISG

CCc1ccc(-c2sncc2COc2ccc(CCC(=O)O)c(C)c2C)cc1
EC50 [1]: 191 nM

CCc1ccc(-c2nsc(OC)c2COc2ccc(CCC(=O)O)c(C)c2C)cc1
EC50 [1]: 920 nM

O=C(O)CCc1cc(F)c(OCc2c(-c3ccc(Cl)c(F)c3)nsc2C(F)(F)F)c(F)c1
EC50 [1]: 25 nM
remaining at 10 min [2]: 87 to 100%
remaining at 10 min [3]: 87 to 100%
remaining at 10 min [4]: 87 to 100%
EC50 [5]: 102 nM
EC50 [6]: 3000 nM

O=C(O)CCc1cc(F)c(OCc2c(-c3ccc(C(F)(F)F)cc3)nsc2C(F)(F)F)c(F)c1
EC50 [1]: 108 nM

O=C(O)CCc1cc(F)c(OCc2c(-c3ccc(Cl)cc3F)nsc2C(F)(F)F)c(F)c1
EC50 [1]: 42 nM
remaining at 10 min [2]: 87 to 100%
remaining at 10 min [3]: 87 to 100%
remaining at 10 min [4]: 87 to 100%
EC50 [5]: 77 nM
EC50 [6]: > 5000 nM
Activity [7]: 61%
Activity [8]: 83%
Activity [9]: Dose-dependent effect
Activity [10]: 137%
Activity [11]: 34%
Activity [12]: 3%
Activity [13]: 2%
inhibition (INH) [14]: Not Active
activity at 5 µM [15]: 25.4%
IC50 [16]: > 50000 nM
inhibition at 3 µM [17]: 5.9%
inhibition at 10 µM [18]: 11.2%
inhibition at 30 µM [19]: 12.5%
fraction unbound [20]: 0.0013
fraction unbound [21]: 0.0019
fraction unbound [22]: 0.0032
solubility kinetic [23]: 38.9 µM (≈ 19.3 µg/mL)
Papp A→B [24]: 17.5 ×10⁻⁶ cm/s
efflux ratio [25]: 1.05
bioavailability [26]: 57.2%
half-life [27]: 0.98 h
Cmax [28]: 3560 ng/mL
AUC(0-t) [29]: 4470 ng·h/mL
Cmax [30]: 9270 ng/mL
AUC(0-t) [31]: 46800 ng·h/mL
half-life [32]: 5.23 h
Kp [33]: 0.08

O=C(O)CCc1ccc(OCc2c(-c3ccc(Cl)cc3)nsc2C(F)(F)F)c(Br)c1
EC50 [1]: 31 nM

O=C(O)CCc1ccc(OCc2c(-c3ccc(Cl)cc3)nsc2C(F)(F)F)c(F)c1F
EC50 [1]: 86 nM

O=C(O)CCc1c(F)c(F)c(OCc2c(-c3ccc(Cl)cc3)nsc2C(F)(F)F)c(F)c1F
EC50 [1]: 173 nM

Cc1c(CCC(=O)O)ccc(OCc2csnc2-c2ccc(Cl)cc2)c1C
EC50 [1]: 215 nM
remaining at 10 min [2]: 86%
remaining at 10 min [3]: 73%
remaining at 10 min [4]: 71%

O=C(O)CCc1cc(F)c(OCc2c(-c3ccccc3)nsc2C(F)(F)F)c(F)c1
EC50 [1]: 160 nM

COc1ccc(-c2nsc(C(F)(F)F)c2COc2c(F)cc(CCC(=O)O)cc2F)cc1
EC50 [1]: 75 nM

O=C(O)CCc1cc(F)c(OCc2c(-c3ccc(Cl)cc3)nsc2C(F)(F)F)c(F)c1
EC50 [1]: 51 nM

O=C(O)CCc1cc(F)c(OCc2c(-c3ccc(OC(F)(F)F)cc3)nsc2C(F)(F)F)c(F)c1
EC50 [1]: 314 nM
EC50 [34]: 99 nM

N#Cc1ccc(-c2nsc(C(F)(F)F)c2COc2c(F)cc(CCC(=O)O)cc2F)cc1
EC50 [1]: 672 nM

Reference: ChEMBL document CHEMBL4130453, “Discovery of an Isothiazole-Based Phenylpropanoic Acid GPR120 Agonist as a Development Candidate for Type 2 Diabetes” (ACS Med Chem Lett, 2017)
